Target: InhA, NADH-dependent enoyl-[Acyl-Carrier-Protein] reductase (Mycobacterium tuberculosis, UniProt P9WGR1)
Test: enzyme turnover, NADH oxidation at […] nm
Assay type: biochemical

Chain of InhA, NADH-dependent enoyl-[Acyl-Carrier-Protein] reductase (P9WGR1 whole entry, looked up): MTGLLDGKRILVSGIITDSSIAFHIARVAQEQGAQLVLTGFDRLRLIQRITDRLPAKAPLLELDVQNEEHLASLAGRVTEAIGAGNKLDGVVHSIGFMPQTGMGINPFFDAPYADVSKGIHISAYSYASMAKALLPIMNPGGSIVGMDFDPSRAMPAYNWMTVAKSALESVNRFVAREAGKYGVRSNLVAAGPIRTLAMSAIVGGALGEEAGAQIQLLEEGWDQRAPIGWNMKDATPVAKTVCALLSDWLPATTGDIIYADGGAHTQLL

`CCCCC/C=C/C(=O)SCCNC(=O)CCNC(=O)[C@H](O)C(C)(C)COP(=O)(O)OP(=O)(O)OC[C@H]1O[C@@H](n2cnc3c(N)ncnc32)[C@H](O)[C@@H]1OP(=O)(O)O` [OcCoA, 2-trans-octenoyl-CoA] was tested, and the “enzyme turnover, NADH oxidation at 340 nm” value was “All three enzymes were catalytically active and oxidized NADH in the presence of the substrate 2-trans-octenoyl-CoA (OcCoA)”.

Reference: PMC3491834 (EMBO Molecular Medicine, 2012)
